Laboratory results taken from US20060293288A1, “Use of resolvins to treat gastrointestinal diseases” (priority 2005, published 2006).
“Also recorded” adds a separate entry of the source.

Assays:
[1] = system: leukocyte infiltration in zymosan-induced peritonitis; assay: zymosan-induced peritonitis, leukocyte (PMN) infiltration; assay type: in vivo, mice; details: for relative potency in the peritonitis model: compared with RvE1 or indomethacin; for effect on PMN infiltration/migration into the peritoneum (in words): peritonitis model, mice
Experimental: FIG. 1. (A) Inflammatory exudates from mice treated with EPA and aspirin generate RvE1 in vivo. (B) Inhibition of leukocyte infiltration in zymosan-induced peritonitis treated with EPA and aspirin. Mice were pre-treated for 30 min by aspirin (0.5 mg) intraperitoneally followed by EPA (0.3 mg) and zymosan. Peritoneal lavages were collected at 2 h and cells were enumerated. (n=4, *p<0.05 compared with vehicle control, **p<0.05 compared with aspirin alone). (C) Inhibition of leukocyte infiltration in zymosan-induced peritonitis. RvE1 (100 ng) was injected intravenously into tail veins followed by zymosan A into the peritoneum. Mice were sacrificed, and peritoneal lavages were collected (2 h) and cells enumerated (n=3, *p<0.01 compared with vehicle control).
Inflammatory exudates were initiated with intraperitoneal injection of 1 ml zymosan A (1 mg/ml) with 6-8-wk-old male FvB mice. Mice were pre-treated by aspirin (0.5 mg) i.p. followed by EPA (0.3 mg) and zymosan. Peritoneal lavages were collected at 2 h and cells were enumerated. Cell-free exudates were extracted by C18 solid phase extraction with deuterium-LTB4 (Cascade, UK) as an internal standard for LC-UV-MS/MS analysis using a Finnigan LCQ liquid chromatography ion trap tandem mass spectrometer equipped with a LUNA C18-2 (100×2 mm×5 μm) column and UV diode array detector using mobile phase (methanol:water:acetate at 65:35:0.01) from 0 to 8 min, ramped to methanol 8 to 30 min, with a 0.2 ml/min flow rate.

gastric damage = details: induced by dextran sodium sulfate or aspirin; cited from earlier work
[2] = system: dextran sodium sulfate (DSS)-induced colitis; details: cited from earlier work
TNBS-induced colitis [3] = assay: grading of histologic change of the colon in TNBS colitis; assay type: in vivo, BALB/c mice; details: day 4, 1.0 μg/mouse i.p.
Experimental: FIG. 3. Colon histopathology from RvE1 or ATLa-treated mice. Colon section of vehicle-treated mouse (A), 4 days after the induction of colitis by TNBS (B), mice received RvE1 (C) and ATLa (D). (E) Histological scores of the colon of mice receiving vehicle, TNBS only, TNBS plus RvE1, or TNBS plus ATLa. *p<0.05 and **p<0.01, respectively.
To generate a more chronic T cell-mediated inflammation, BALB/c mice were sensitized with 150 μl of the haptenating agent 2,4,6-trinitrobenzene sulfonic acid (TNBS; Sigma-Aldrich, St. Louis, Mo.) of 2.5% in 50% ethanol by skin painting on day −7. On day 0, 150 μl of 1% TNBS in 50% ethanol was administered intrarectally via a 3.5 F catheter under anesthesia with tribromoethanol. To ensure distribution of the TNBS within the entire colon and cecum, mice were held in a vertical position for 1 min after the instillation. On day 4, mice were killed and immunopathologic characterization was performed as previously described (23).
The degree of inflammation on microscopic cross sections of the colon was graded semi quantitatively. Severity of colitis was assessed based on five histologic criteria, each graded on a […] (0=absent, 1=mild, 2=moderate, 3=severe): mononuclear inflammation, neutrophilic infiltration/crypt abscesses, crypt hyperplasia, mucosal injury/ulceration, and mucosal hypervascularity. The five scores were summed to give a total score. […]

TNBS-induced colitis [4] = assay: TNBS-induced colitis (mortality, body weight, colon macroscopy); assay type: in vivo, BALB/c mice
Experimental: (C) Macroscopic appearance of the colon of mice receiving vehicle, TNBS only, or mice receiving RvE1 (0.05 mg/kg).
RvE1 was administered intraperitoneally (1.0 μg/mouse; 50 μg/kg) on the indicated days before the induction of colitis (prevention mode). Aspirin-triggered lipoxin A4 analog (ATLa; 15-epi-16-(p-fluoro)phenoxy-LXA4) was given at the same dose as a direct comparison with RvE1.

[5] = system: Myeloperoxidase (MPO) activity of colons; assay: myeloperoxidase (MPO) assay of colon tissue in TNBS colitis; assay type: in vivo, mice; details: versus control vehicle
Excerpt: (§1) FIG. 4. RvE1 reduces leukocyte infiltration and pro-inflammatory mediators in colitis. (A) Myeloperoxidase (MPO) activity of colons of mice treated with TNBS alone or mice given RvE1. *p<0.0001 versus mice treated with TNBS alone. (B) Anti-TNBS IgG level in serum on day 4 from mice treated with TNBS alone or receiving RvE1 as noted. *p<0.01. (C) Quantitative real time PCR analysis of mRNA expression of inflammatory mediators in colons obtained on day 4 from control mice (white column), mice treated with TNBS alone (black column) or receiving TNBS plus RvE1 (gray column). *p<0.01.
Each tissue sample was assessed for PMN content and infiltration. Tissues were homogenized in potassium phosphate buffer (pH 6.0) containing 0.5% hexadecyltrimethylammonium bromide, followed by three cycles of sonication and freeze-thawing. The particulate matter was removed by centrifugation (16,000 g for 20 min), and 75 μl of supernatant was added to 925 μl of potassium phosphate buffer (pH 6.0) containing 0.2 mg/ml o-dianisidine dihydrochloride (Sigma, St. Louis, Mo.) and 0.0006% hydrogen peroxide. Changes in OD were monitored at 460 nm at 25° C., at 30- and 90-s intervals. Calibration curve for conversion of MPO activities to PMN number was performed as in ref. 24.

[6] = system: mRNA expression of inflammatory mediators in colons; assay: quantitative real-time PCR of inflammatory mediators in colon; assay type: in vivo, mice; details: day 4, TNBS colitis
Excerpt: as §1
Total RNA from colon was prepared using Trizol™ reagent (Life Technologies, Rockville, Md.). Real-time PCR was performed using the LightCycler FastStart DNA Master SYBR Green I (Roche Diagnostics GmbH, Mannheim, Germany) according to manufacturer's protocol. Primers for IFN-γ, IL-12p40, TNF-α, IL-4, TGF-β, IL-10, iNOS and glyceraldehyde-3-phosphate dehydrogenase (GAPDH) were designed as described (26). Primers for COX-2 were designed as follows: 5′-[…]-3′ and 5′-[…]-3′. Quantities of specific mRNA in the sample were measured according to the corresponding gene-specific standard curve. The relative expression of each gene was normalized against the housekeeping gene GAPDH.

anti-TNBS IgG = assay: detection of TNP-specific antibodies in serum with ELISA; assay type: in vivo, mice; details: day 4
Excerpt: as §1
Sera were collected on day 4, and anti-trinitrophenyl residue (TNP) antibodies were determined by ELISA as previously described with a minor modification (25). Briefly, 100 mg of OVA was dissolved in 4 ml of 0.05M carbonate-bicarbonate buffer at pH 9.6 followed by adding 1 ml of TNBS 5% solution and incubating for 2 h at room temperature. TNP-OVA was dialyzed in PBS and then stored at −80° C. until use. For the detection of TNP-specific antibodies, TNP-OVA was dissolved at the concentration of 0.1 mg/ml in 0.05M carbonate-bicarbonate buffer at pH 9.6 and 100 μl was placed in each well of 96-well microtiter plates for coating. After blocking with 1% bovine serum albumin in PBS, plates were incubated with appropriately diluted serum. […]

CCC(O)/C=C/C=C\C/C=C\C/C=C\C=C\[C@@H](O)CCCC(=O)O (mixture of isomers) [5S,18(+/−)-diHEPA]
relative potency in the peritonitis model [1]: equipotent to Resolvin E1 | effect on PMN infiltration/migration into the peritoneum (in words) [1]: downregulation of PMN infiltration

CC/C=C\C[C@H](O)/C=C/C=C\C=C\[C@@H](O)C/C=C\CC#CCCC(=O)O [4,5-dehydro 10,17S-dihydroxy DHA]
inhibition of the PMN infiltration ([1]; 100 ng dose, murine zymosan A-induced peritonitis): 40%

CC/C=C\C[C@H](O)/C=C/C=C/C=C/C(O)C/C=C\C/C=C\CCC(=O)O (stereo partly drawn) [10,17 di-HDHA, 10,17S-dihydroxy-docosa-4Z,7Z,11E,13,15E,19Z-hexaenoic acid]
effect on PMN infiltration/migration into the peritoneum (in words) [1]: inhibited both PMN migration into the peritoneum

CCCCC[C@@H](O)/C=C/C=C\C=C\C=C\[C@@H](O)[C@@H](O)CCCC(=O)O [15-epi-lipoxin A4]
protection against gastric damage (gastric damage): protective

CC[C@@H](O)/C=C/C=C\C/C=C\C/C=C\C/C=C\CCCC(=O)O [18R-HEPE, reference compound]
relative potency in the peritonitis model [1]: much less potent

O=C(O)CCC[C@H](O)[C@H](O)/C=C/C=C/C=C\C=C\[C@H](O)COc1ccc(F)cc1 [ATLa, 15-epi-16-(p-fluoro)phenoxy-LXA4, reference compound]
protection against DSS-induced colitis [2]: protective | histologic features of colitis (TNBS-induced colitis [3]): dramatic protection

CC[C@@H](O)/C=C/C=C\C[C@@H](O)/C=C/C=C/C=C\[C@@H](O)CCCC(=O)O [RvE1, 5S,12R,18R-trihydroxy-6Z,8E,10E,14Z,16E-eicosapentaenoic acid]
protection against the development of TNBS colitis (TNBS-induced colitis [4]; 0.05 mg/kg): complete protection | overall mortality (TNBS-induced colitis [4]; RvE1 1.0 μg/mouse (0.05 mg/kg) i.p., TNBS alone 62.5%): 25% | body weight loss (TNBS-induced colitis [4]; RvE1 1 μg/mouse or 0.05 mg/kg, versus TNBS with vehicle): less weight loss | shortening and thickening of the colon (TNBS-induced colitis [4]; RvE1 0.05 mg/kg): did not exhibit significant shortening and thickening of the colon | survival rate (TNBS-induced colitis [4]; versus non-treated mice): significantly higher | histologic features of colitis (TNBS-induced colitis [3]): less severe histologic features of colitis | myeloperoxidase (MPO) activity in colon [5]: significantly lower levels | reduction of leukocyte infiltration ([1]; 100 ng/mouse intravenously, zymosan peritonitis, lavage at 2 h): 50% | relative potency in the peritonitis model [1]: more potent than indomethacin | COX-2 mRNA level in colon [6]: significant reduction | IFN-γ mRNA level in colon [6]: direct effects were not observed | IL-4 mRNA level in colon [6]: direct effects were not observed | IL-10 mRNA level in colon [6]: direct effects were not observed | IL-12p40 mRNA level in colon [6]: significant reduction | TGF-β mRNA level in colon [6]: did not show significant differences | TNF-α mRNA level in colon ([6]; 0.05 mg/kg): significant reduction; also recorded: dramatic decrease | iNOS mRNA level in colon ([6]; 0.05 mg/kg): significant reduction; also recorded: dramatic decrease | serum anti-TNBS IgG level (anti-TNBS IgG): decreased

COc1ccc2c(c1)c(CC(=O)O)c(C)n2C(=O)c1ccc(Cl)cc1 [indomethacin, reference compound]
reduction of leukocyte numbers in the exudate ([1]; zymosan peritonitis, dose not given): approximately 20%
